Measurements reported in US6403534B1, “Uracil compounds and use thereof” (Sumitomo Chemical Company, Limited, priority 2000, dated 2002).

Columns and labels:
blackgrass [1] = experiment: Test Example 3: foliar treatment of field; format: in vivo, Alopecurus myosuroides; set-up: key: “0” means that there was no or little difference in the degree of germination or growth between the treated and the untreated tested plants at the time of examination; “10” means that the test plants died completely or their germination or growth was completely inhibited; conditions: index 0 to 10, 16 days after application
Method: (§1) Test for Foliar Treatment of Field A cylindrical plastic pot having a diameter of 10 cm and a depth of 10 cm was filled with soil and then seeded with ivyleaf morningglory and blackgrass. These test plants were grown in a greenhouse for 10 days. Then, each of the test compounds was formulated into an emulsifiable concentrate according to Formulation Example 2 and then diluted to the prescribed amount with water containing a spreading agent and the dilution was uniformly sprayed over the foliage of the test plants with a sprayer at a rate of 1000 liters per hectare. After the application, the test plants were grown in the greenhouse for 16 days, and the herbicidal activity was examined.

ivyleaf morningglory [2] = experiment: Test Example 3: foliar treatment of field; format: in vivo, Ipomoea hederacea; set-up: key: “0” means that there was no or little difference in the degree of germination or growth between the treated and the untreated tested plants at the time of examination; “10” means that the test plants died completely or their germination or growth was completely inhibited; conditions: index 0 to 10, 16 days after application
Method: as §1

barnyardgrass [3] = experiment: Test Example 4: soil surface treatment of field; format: in vivo, Echinochloa crus-galli; set-up: key: “0” means that there was no or little difference in the degree of germination or growth between the treated and the untreated tested plants at the time of examination; “10” means that the test plants died completely or their germination or growth was completely inhibited; conditions: index 0 to 10, 12 days after application
Excerpt: (§2) Test for Soil Surface Treatment of Field A plastic pot having an area of (26.5×19) cm^2 and a depth of 7 cm was filled with soil and then seeded with ivyleaf morningglory, velvetleaf, barnyardgrass and giant foxtail. Then, each of the test compounds was formulated into an emulsifiable concentrate according to Formulation Example 2 and then diluted to the prescribed amount with water, and the dilution was uniformly sprayed over the surface of the soil with a sprayer at a rate of 1000 liters per hectare. After the application, the test plants were grown in the greenhouse for 12 days, and the herbicidal activity was examined. The herbicidal activity was evaluated by the same method as in Test Example 3.

giant foxtail = experiment: Test Example 4: soil surface treatment of field; format: in vivo, Setaria faberi; set-up: key: “0” means that there was no or little difference in the degree of germination or growth between the treated and the untreated tested plants at the time of examination; “10” means that the test plants died completely or their germination or growth was completely inhibited; conditions: index 0 to 10, 12 days after application
Excerpt: as §2

velvetleaf [4] = experiment: Test Example 4: soil surface treatment of field; format: in vivo, Abutilon theophrasti; set-up: key: “0” means that there was no or little difference in the degree of germination or growth between the treated and the untreated tested plants at the time of examination; “10” means that the test plants died completely or their germination or growth was completely inhibited; conditions: index 0 to 10, 12 days after application
Excerpt: as §2

ivyleaf morningglory [5] = experiment: Test Example 4: soil surface treatment of field; format: in vivo, Ipomoea hederacea; set-up: key: “0” means that there was no or little difference in the degree of germination or growth between the treated and the untreated tested plants at the time of examination; “10” means that the test plants died completely or their germination or growth was completely inhibited; conditions: index 0 to 10, 12 days after application
Excerpt: as §2

velvetleaf [6] = experiment: Test Example 1: foliar treatment of field; format: in vivo, Abutilon theophrasti; conditions: foliar spray, 125 g/ha, plants grown 14 days before, examined 16 days after application
Method: (§3) Test for Foliar Treatment of Field
(§4) A cylindrical plastic pot having a diameter of 10 cm and a depth of 10 cm was filled with soil and then seeded with barnyardgrass, blackgrass, ivyleaf morningglory and velvetleaf These test plants were grown in a greenhouse for 14 days. Then, each of compounds 1-2, 1-3, 1-7, 1-19 and 1-28 was formulated into an emulsifiable concentrate according to Formulation Example 2 and then diluted to the prescribed amount with water containing a spreading agent and the dilution was uniformly sprayed over the foliage of the test plants with a sprayer at a rate of 1000 liters per hectare. After the application, the test plants were grown in the greenhouse for 16 days, and the herbicidal activity was determined.

barnyardgrass [7] = experiment: Test Example 1: foliar treatment of field; format: in vivo, Echinochloa crus-galli; conditions: foliar spray, 125 g/ha, plants grown 14 days before, examined 16 days after application
Method: as §3, §4

ivyleaf morningglory [8] = experiment: Test Example 1: foliar treatment of field; format: in vivo, Ipomoea hederacea; conditions: foliar spray, 125 g/ha, plants grown 14 days before, examined 16 days after application
Method: as §3, §4

velvetleaf [9] = experiment: Test Example 2: soil surface treatment of field; format: in vivo, Abutilon theophrasti; conditions: soil surface spray, 500 g/ha, examined 19 days after application
Excerpt: (§5) Test for Soil Surface Treatment of Field
(§6) A cylindrical plastic pot having a diameter of 10 cm and a depth of 10 cm was filled with soil and then seeded with barnyardgrass, blackgrass, ivyleaf morningglory and velvetleaf. Then, each of compounds 1-2, 1-3, 1-7, 1-19 and 1-28 was formulated into an emulsifiable concentrate according to Formulation Example 2 and then diluted to the prescribed amount with water, and the dilution was uniformly sprayed over the surface of the soil with a sprayer at a rate of 1000 liters per hectare. After the application, the test plants were grown in the greenhouse for 19 days, and the herbicidal activity was examined.

blackgrass [10] = experiment: Test Example 1: foliar treatment of field; format: in vivo, Alopecurus myosuroides; conditions: foliar spray, 125 g/ha, plants grown 14 days before, examined 16 days after application
Method: as §3, §4

barnyardgrass [11] = experiment: Test Example 2: soil surface treatment of field; format: in vivo, Echinochloa crus-galli; conditions: soil surface spray, 500 g/ha, examined 19 days after application
Excerpt: as §5, §6

blackgrass [12] = experiment: Test Example 2: soil surface treatment of field; format: in vivo, Alopecurus myosuroides; conditions: soil surface spray, 500 g/ha, examined 19 days after application
Excerpt: as §5, §6

ivyleaf morningglory [13] = experiment: Test Example 2: soil surface treatment of field; format: in vivo, Ipomoea hederacea; conditions: soil surface spray, 500 g/ha, examined 19 days after application
Excerpt: as §5, §6

| Structure (SMILES) | Herbicidal activity Blackgrass (blackgrass [1]; dosage 8 g/ha) | Herbicidal activity Blackgrass (blackgrass [1]; dosage 32 g/ha) | Herbicidal activity Blackgrass (blackgrass [1]; dosage 125 g/ha) | Herbicidal activity Ivyleaf morningglory (ivyleaf morningglory [2]; dosage 8 g/ha) | Herbicidal activity Ivyleaf morningglory (ivyleaf morningglory [2]; dosage 32 g/ha) | Herbicidal activity Ivyleaf morningglory (ivyleaf morningglory [2]; dosage 125 g/ha) | Herbicidal activity Barnyard grass (barnyardgrass [3]; dosage 32 g/ha) | Herbicidal activity Barnyard grass (barnyardgrass [3]; dosage 125 g/ha) | Herbicidal activity Barnyard grass (barnyardgrass [3]; dosage 500 g/ha) | Herbicidal activity Giant foxtail (giant foxtail; dosage 32 g/ha) | Herbicidal activity Giant foxtail (giant foxtail; dosage 125 g/ha) | Herbicidal activity Giant foxtail (giant foxtail; dosage 500 g/ha) | herbicidal activity (growth of velvetleaf) (velvetleaf [6]) | herbicidal activity (growth of barnyardgrass) (barnyardgrass [7]) | herbicidal activity (growth of ivyleaf morningglory) (ivyleaf morningglory [8]) | herbicidal activity (germination of velvetleaf) (velvetleaf [9]) | herbicidal activity (growth of blackgrass) (blackgrass [10]) | herbicidal activity (germination of barnyardgrass) (barnyardgrass [11]) | herbicidal activity (germination of blackgrass) (blackgrass [12]) | herbicidal activity (germination of ivyleaf morningglory) (ivyleaf morningglory [13]) | also measured |
| --- | --- | --- | --- | --- | --- | --- | --- | --- | --- | --- | --- | --- | --- | --- | --- | --- | --- | --- | --- | --- | --- |
| C=CCOC(=O)C(C)(C)Oc1cc(-n2c(=O)cc(C(F)(F)F)n(C)c2=O)c(F)cc1Cl [Comparative compound A, reference compound] | 3 | 4 | 6 | 7 | 10 | 10 | 1 | 7 | 10 | 4 | 10 | 10 | – | – | – | – | – | – | – | – | Herbicidal activity Velvet leaf (velvetleaf [4]; dosage 32 g/ha): 3; Herbicidal activity Velvet leaf (velvetleaf [4]; dosage 125 g/ha): 10; Herbicidal activity Velvet leaf (velvetleaf [4]; dosage 500 g/ha): 10; Herbicidal activity Ivyleaf morningglory (ivyleaf morningglory [5]; dosage 32 g/ha): 0; Herbicidal activity Ivyleaf morningglory (ivyleaf morningglory [5]; dosage 125 g/ha): 4; Herbicidal activity Ivyleaf morningglory (ivyleaf morningglory [5]; dosage 500 g/ha): 8 |
| COC(=O)C(CC(C)C)NC(=O)C1(Oc2cc(-n3c(=O)cc(C(F)(F)F)n(C)c3=O)c(F)cc2Cl)CC1 (stereo not shown) [Compound 1-28] | – | – | – | – | – | – | – | – | – | – | – | – | completely controlled | completely controlled | completely controlled | completely controlled | completely controlled | completely controlled | completely controlled | completely controlled | – |
| COC(=O)C1(Oc2cc(-n3c(=O)cc(C(F)(F)F)n(C)c3=O)c(F)cc2Cl)CC1 [Compound 1-2, methyl 1-[2-chloro-4-fluoro-5-{3-methyl-2,6-dioxo-4-(trifluoro-methyl)-1,2,3,6-tetrahydropyrimidin-1-yl}phenoxy]cyclo-propanecarboxylate] | – | – | – | – | – | – | – | – | – | – | – | – | completely controlled | completely controlled | completely controlled | completely controlled | completely controlled | completely controlled | completely controlled | completely controlled | – |
| CCOC(=O)C1(Oc2cc(-n3c(=O)cc(C(F)(F)F)n(C)c3=O)c(F)cc2Cl)CC1 [Compound 1-3, ethyl 1-[2-chloro-4-fluoro-5-{3-methyl-2,6-dioxo-4-(trifluoromethyl)-1,2,3,6-tetrahydropyrimidin-1-yl}phenoxy]cyclopropanecarboxylate] | – | – | – | – | – | – | – | – | – | – | – | – | completely controlled | completely controlled | completely controlled | completely controlled | completely controlled | completely controlled | completely controlled | completely controlled | – |
| C=CCOC(=O)C1(Oc2cc(-n3c(=O)cc(C(F)(F)F)n(C)c3=O)c(F)cc2Cl)CC1 [Compound 1-7] | 5 | 6 | 10 | 10 | 10 | 10 | 6 | 10 | 10 | 10 | 10 | 10 | completely controlled | completely controlled | completely controlled | completely controlled | completely controlled | completely controlled | completely controlled | completely controlled | Herbicidal activity Velvet leaf (velvetleaf [4]; dosage 32 g/ha): 10; Herbicidal activity Velvet leaf (velvetleaf [4]; dosage 125 g/ha): 10; Herbicidal activity Velvet leaf (velvetleaf [4]; dosage 500 g/ha): 10; Herbicidal activity Ivyleaf morningglory (ivyleaf morningglory [5]; dosage 32 g/ha): 2; Herbicidal activity Ivyleaf morningglory (ivyleaf morningglory [5]; dosage 125 g/ha): 10; Herbicidal activity Ivyleaf morningglory (ivyleaf morningglory [5]; dosage 500 g/ha): 10 |
| CSC(=O)C1(Oc2cc(-n3c(=O)cc(C(F)(F)F)n(C)c3=O)c(F)cc2Cl)CC1 [Compound 1-19] | – | – | – | – | – | – | – | – | – | – | – | – | completely controlled | completely controlled | completely controlled | completely controlled | completely controlled | completely controlled | completely controlled | completely controlled | – |
